US4213983A, “Treating gastro-intestinal disorders and emesis with n-(heterocyclic substituted) benzamides” (Beecham Group Limited, priority 1976, dated 1980)

Experiments:
[1] = tested on: emetic response to apomorphine hydrochloride; assay: Abolition of the emetic response to apomorphine hydrochloride; assay type: in vivo; conditions: Canis lupus familiaris, sc; S.C.; dog; apomorphine hydrochloride 0.1 mg/kg subcutaneously; active doses (mg/kg); read-out: Anti-Emetic ED 50
Protocol: 2. Compounds were also tested for abolition of the emetic response to apomorphine hydrochloride (0.1 mg/kg subcutaneously) in the dog

intragastric pressure = assay: Increase in intragastric pressure; assay type: in vivo, rat; conditions: conscious restrained rats with gastric fistula, 40 minutes after administration, active doses (mg/kg)
Protocol: (§1) 1. Compounds prepared in the Examples were tested for the following pharmacological activities in the rat:
(a) Increase in intragastric pressure
Intragastric pressure changes were recorded from previously starved conscious and restrained rats using a saline filled catheter inserted into the lumen of the stomach via a permanent gastric fistula. The catheter was connected to a physiological pressure transducer and pressure changes recorded on a hot wire pen recorder. In each animal a pre-dose period of 40 minutes was allowed to obtain a measure of spontaneous activity. An index of activity was obtained by measuring the average height of pressure waves during 10 minute periods. Values for 4 such periods were obtained during assessment of spontaneous activity and for the 40 minute period after the administration of the Compounds. Student "t" test was applied to the difference in average values obtained for spontaneous and post Compound activity.

[2] = tested on: apomorphine induced delay in gastric emptying; assay: Increase in gastric emptying - reversal of apomorphine induced delay in gastric emptying of a test meal; assay type: in vivo, rat; conditions: S.C.; rats with chronic gastric fistula; Apomorphine HCl 5 mg/kg subcutaneously 15 minutes prior; active doses (mg/kg)
Protocol: as §1
(b) Increase in gastric emptying-reversal of apomorphine induced delay in gastric emptying of a test meal.
Rats equipped with chronic gastric fistula were used and it was through this that 5 ml of a test meal (5 ml phosphate buffer at pH 9) was administered and recovered. The % recovery of the standard meal after remaining in the stomach for 10 minutes was taken as an index of gastric emptying. Delay in gastric emptying was induced by the administration of Apomorphine HCl (5 mg/kg subcutaneously) and was given 15 minutes prior to the administration of the Compound. The % recoveries of the test meal was determined at 15-25 and 45-55 minutes post dosing with the Compound and compared with vehicle only dosed animals set up simultaneously. Six animals were used for each group.

dopamine receptor = assay: Inhibition of stereotype behaviour induced by apomorphine; assay type: in vivo, rat; conditions: for Inhibition of Stereo-Type Behaviour, active dose: S.C., rat, active doses (mg/kg); for Inhibition of Stereo-Type Behaviour, number of rats: at 50mg S.C.
Protocol: as §1
(c) Inhibition of stereotype behaviour induced by apomorphine.
This is indicative of dopamine receptor blockade in the central nervous system.
The method of Ernst A. M. (1967) Pyschopharmocologia (Berl.) 10 pp. 316-323 was followed.

With COc1cc(N)c(Cl)cc1C(=O)NC1CCN2CCCCC2C1 (stereo not drawn) [Example 2, 4-Amino-5-chloro-2-methoxy-N-(2-quinolizidinyl)-benzamide] as the compound, how does the ED50 [1] read?
The ED50 was 0.7 mg/kg.

What about the “Increase in Intra-Gastric Pressure, active dose” value (intragastric pressure; P.O.) of the same compound?
The value was 50 mg.

And the “Increase in Intra-Gastric Pressure, active dose” value (intragastric pressure; S.C.)?
Its value is 2.5 mg.

What about the “Increase in Gastric Emptying, active dose” value (“Increase in Gastric Emptying” below) [2] of the same compound?
The value was 25 mg.

What about the “Inhibition of Stereo-Type Behaviour, active dose” value (from here on “Inhibition … active dose”) (dopamine receptor) of the same compound?
Its value is 15 mg.

With COc1cc(N)c(Cl)cc1C(=O)NC1CCN2CCCC2C1 (stereo not drawn) [Example 4, 4-Amino-5-chloro-2-methoxy-N-(7-octahydro-indolizinyl)-benzamide] as the compound, how does the ED50 [1] read?
Its ED50 is less than 2 mg/kg.

What about the “Increase in Intra-Gastric Pressure, active dose” value (intragastric pressure; S.C.) of the same compound?
The value was 5 mg.

And the “Increase in Gastric Emptying” value [2]?
Its value is 50 mg.

And the “Inhibition … active dose” value (dopamine receptor)?
Its value is 50 mg.

What about the “Inhibition of Stereo-Type Behaviour, number of rats” value (dopamine receptor) of the same compound?
The value was 4 out of 7 rats.

How did the ED50 [1] turn out when COc1cc(N)c(Cl)cc1C(=O)NC1CCC2CCCCN2C1 (stereo not drawn) [Example 6, 4-Amino-5-chloro-2-methoxy-N-(3-quinolizidinyl)-benzamide] was run?
The ED50 was 1.4 mg/kg.

What about the “Inhibition … active dose” value (dopamine receptor) of the same compound?
Its value is 50 mg.

What about the “Inhibition of Stereo-Type Behaviour, number of rats” value (dopamine receptor) of the same compound?
The value was 3 out of 7 rats.

How did the ED50 [1] turn out when COc1cc(N)c(Cl)cc1C(=O)NC1CCCN2CCCCC12 (stereo not drawn) [Example 8b, 4-Amino-5-chloro-2-methoxy-N-(1-quinolizidinyl)-benzamide] was run?
Its ED50 is less than 2 mg/kg.

And the “Inhibition … active dose” value (dopamine receptor)?
Its value is 50 mg.

How did the “Increase in Gastric Emptying” value [2] turn out when COc1cc(N)c(Cl)cc1C(=O)NC1CCN2CCc3ccccc3C2C1 (stereo not drawn) [Example 10, 4-Amino-5-chloro-N-[2-(2H-benzo[a]-quinolizine-1,3,4,6,7,11b-hexahydro)]-2-methoxy-benzamide] was run?
Its value is 50 mg.

With COc1cc(N)c(Cl)cc1C(=O)NN1CCN2CCCCC2C1 (stereo not drawn) [Example 12] as the compound, how does the ED50 [1] read?
Its ED50 is 2 mg/kg.

What does the source list for COc1cc(N)c(Cl)cc1C(=O)NC1CC2CCCCN2C1 (stereo not drawn) [Example 14, 4-Amino-5-chloro-2-methoxy-N-(2-octahydroindolizinyl)-benzamide]?
ED50 [1]: < 2 mg/kg; Increase in Gastric Emptying, active dose [2]: 50 mg; Inhibition of Stereo-Type Behaviour, active dose (dopamine receptor): 50 mg

Which “Increase in Intra-Gastric Pressure, active dose” value (intragastric pressure; S.C.) does the source give for COc1cc(N)c(Cl)cc1C(=O)NC1CCN2C(C)CCCC2C1 (stereo not drawn) [Example 16, 4-Amino-5-chloro-2-methoxy-N-(6-methyl-2-quinolizidinyl)-benzamide] here?
Its value is 1 mg.
